Data published in patent US20140378463A1, “IP receptor agonist heterocyclic compounds” (NOVARTIS AG, priority 2012, published 2014).

Target: T1, IP receptor (Homo sapiens, UniProt P43119)
T1 construct: expressed in transfected cells; host or cells: CHO cells stably expressing the IP receptor (CHO-IP)
Test: cAMP accumulation in CHO cells stably expressing the IP receptor (CHO-IP), PerkinElmer AlphaScreen assay
Type: cell-based
Conditions: 1 hour at room temperature, 4-parameter logistic fit
Method: Activity of compounds at the IP receptor (IP receptor) is assessed by measuring cAMP accumulation in CHO cells stably expressing the IP receptor (CHO-IP) using the PerkinElmer AlphaScreen assay. This technology measures the endogenous production of cAMP, in a non-radioactive luminescence proximity homogenous assay. A biological reaction occurs between streptavidin coated donor beads, biotinylated cAMP and anti-cAMP acceptor beads, bringing the donor and acceptor beads close enough together so that upon excitation a fluorescence signal is produced. On production of endogenous cAMP, competition between the biotinylated cAMP and cellular-derived cAMP causes a reduction in the fluorescent signal. The reduction in signal is proportional to the amount of cAMP being produced, thus it is possible to quantify the amount of cAMP being produced on stimulation with agonist.
Test and reference compounds are prepared at 100×[final] in 100% DMSO, and diluted 1:3 using a Biomek Fx (Beckman Coulter). This is followed by an intermediate dilution to give 5×[final] in assay buffer (HBSS containing 5 mM HEPES, 0.1% (w/v) BSA). 5 μL of 5×[final] test compounds, reference compounds and buffer/DMSO control are then transferred to a 384-well white OptiPlate, containing 20 μL CHO-IP cell suspension (15,000 cells/well, prepared from frozen), and plate is incubated at room temperature for 1 hour. A cAMP standard curve is constructed for each experiment (concentration range of 10000 nM to 0.001 nM, in assay buffer) and 25 μL of each concentration added to the last two columns of the assay plate. The incubation is terminated by the addition of lysis buffer (dH2O; 0.3% (v v^−1) Tween-20) containing 20 units mL^−1 streptavidin coated donor beads and biotinylated cAMP (pre-incubated for 30 minutes) and 20 units mL^−1 anti-cAMP acceptor beads, which are added to the lysis buffer just before addition to the assay plate. The assay plate is then incubated at room temperature in the dark, for 60 minutes with gentle shaking, and read on the Envision plate reader (Perkin Elmer).
The raw data of the reference compounds, test compounds and controls are converted into cAMP concentrations, using the cAMP standard curve, in GraphPadPrism (Graph Pad Software Inc). EC50 as well as maximal values of the agonist curves are determined using a 4-parameter logistic equation. The % maximum response values of all test compounds are determined using the top of the treprostinil concentration-response curve.

T1 sequence (P43119 whole entry): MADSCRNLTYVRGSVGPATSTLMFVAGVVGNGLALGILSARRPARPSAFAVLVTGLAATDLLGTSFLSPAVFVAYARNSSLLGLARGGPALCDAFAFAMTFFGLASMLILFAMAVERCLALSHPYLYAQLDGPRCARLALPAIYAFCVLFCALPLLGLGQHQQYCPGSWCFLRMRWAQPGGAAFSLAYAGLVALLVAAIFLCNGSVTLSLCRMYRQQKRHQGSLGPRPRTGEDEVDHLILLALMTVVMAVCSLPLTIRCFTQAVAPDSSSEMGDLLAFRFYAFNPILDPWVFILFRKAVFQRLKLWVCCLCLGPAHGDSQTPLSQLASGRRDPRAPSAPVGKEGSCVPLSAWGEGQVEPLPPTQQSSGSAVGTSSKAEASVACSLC

| Structure (SMILES) | EC50 |
| --- | --- |
| Cc1ccc(-c2nc3c(nc2-c2ccc(C)cc2)C(CCCCCCC(=O)O)N(C)CC3)cc1 (stereo not drawn) [Example 3, 7-(6-Methyl-2,3-dip-tolyl-5,6,7,8-tetrahydropyrido[3,4-b]pyrazin-5-yl)heptanoic acid] | 2.3 nM |
| Cc1ccc(-c2nc3c(nc2-c2ccc(C)cc2)C(CCCCCC(=O)O)NCC3)cc1 (racemic) [Example 2, rac-6-(2,3-Dip-tolyl-5,6,7,8-tetrahydropyrido[3,4-b]pyrazin-5-yl)hexanoic acid] | 5 nM |
| CC1c2nc(-c3ccccc3)c(-c3ccccc3)nc2CCN1CCCCCCC(=O)O (single isomer, unassigned) [Example 1(ii), (R)-7-(5-methyl-2,3-diphenyl-7,8-dihydropyrido[3,4-b]pyrazin-6(5H)-yl)heptanoic acid or (S)-7-(5-methyl-2,3-diphenyl-7,8-dihydropyrido[3,4-b]pyrazin-6(5H)-yl)heptanoic acid] | 710 nM |
| Cc1ccc(-c2nc3c(nc2-c2ccc(C)cc2)C(CCCCCCC(=O)O)NCC3)cc1 (racemic) [Example 2.1, rac-7-(2,3-Dip-tolyl-5,6,7,8-tetrahydropyrido[3,4-b]pyrazin-5-yl)heptanoic acid] | 5.4 nM |
| CC1c2nc(-c3ccccc3)c(-c3ccccc3)nc2CCN1CCCCCCC(=O)O (single isomer, unassigned) [Example 1(i), (R)-7-(5-methyl-2,3-diphenyl-7,8-dihydropyrido[3,4-b]pyrazin-6(5H)-yl)heptanoic acid or (S)-7-(5-methyl-2,3-diphenyl-7,8-dihydropyrido[3,4-b]pyrazin-6(5H)-yl)heptanoic acid] | 190 nM |
| CC1c2nc(-c3ccccc3)c(-c3ccccc3)nc2CCN1CCCCCCC(=O)O (racemic) [Example 1, rac-7-(5-methyl-2,3-diphenyl-7,8-dihydropyrido[3,4-b]pyrazin-6(5H)-yl)heptanoic acid] | 275 nM |
| Cc1ccc(-c2nc3c(nc2-c2ccc(C)cc2)C(C)N(CCCCC(=O)O)CC3)cc1 (stereo not drawn) [Example 1.1, 5-(5-Methyl-2,3-di-p-tolyl-7,8-dihydro-5H-pyrido[3,4-b]pyrazin-6-yl)-pentanoic acid] | 1.5 nM |
| Cc1ccc(-c2nc3c(nc2-c2ccc(C)cc2)C(C)N(CCCCCC(=O)O)CC3)cc1 (stereo not drawn) [Example 1.2, 6-(5-Methyl-2,3-di-p-tolyl-7,8-dihydro-5H-pyrido[3,4-b]pyrazin-6-yl)-hexanoic acid] | 2 nM |
| Cc1ccc(-c2nc3c(nc2-c2ccc(C)cc2)C(CCCCCC(=O)O)N(C)CC3)cc1 (racemic) [Example 3.1, rac-6-(6-Methyl-2,3-dip-tolyl-5,6,7,8-tetrahydropyrido[3,4-b]pyrazin-5-yl)hexanoic acid] | 25.9 nM |
